The values that follow come from PMC5911580, “YL143, a novel mutant selective irreversible EGFR inhibitor, overcomes EGFR^L858R, T790M‐mutant resistance in vitro and in vivo” (Cancer Medicine, 2018).

Molecules are shown by their SMILES. Where two headings read alike, the source gives them in different places.

For one data set, the system named is BaF3. The data set can be described thus: CCK-8 assay, BaF3 cells. The data set is classed as cell-based. The conditions noted are these: Mus musculus, AV±SD, read-out: anti-proliferative activity BaF3. How it is done: (§1) Cells were seeded into 96‐well plates at a density of 1500~3000/well in complete medium overnight. Then, cells were treated with various concentrations (0.01~1000 nmol/L) of YL143 for additional 3 days. Viable cell numbers were determined by Cell Counting Kit 8 (CCK8, CK04, Dojindo Laboratories, Japan). Each assay consisted of three replicate wells and repeated at least three times. […] Each IC50 value was expressed as mean ± SD.
(§2) The anti-proliferative activities of the compounds were evaluated using CCK-8 assay. The data were means from at least four independent experiments.
Background: Tetrazolium assays rely on reduction of a dye to a coloured formazan, in cell work by metabolically active cells.

The next data set has as its system BaF3-EGFR ^L858R. Kind of data set: CCK-8 assay, BaF3-EGFR L858R stable cells. In kind it is cell-based. Particulars: Ba/F3 EGFR-L858R, read-out: anti-proliferative activity BaF3-EGFR L858R. As to the method:
as §1, §2

The subject of data set [1] is H1975 (EGFR^L858R/T790M) cells. The data set can be described thus: CCK-8 cell growth assay, H1975. In kind it is cell-based. Particulars: Homo sapiens, read-out: antiproliferative IC50 H1975. How it is done: as §1
For data set [2], the system named is HCC827 (EGFR^del 19) cells. The data set can be described thus: CCK-8 cell growth assay, HCC827. The data set is classed as cell-based. Particulars: Homo sapiens, read-out: antiproliferative IC50 HCC827. As to the method:
as §1

For the next data set, the system named is A431 (EGFR^WT) cells. The data set can be described thus: CCK-8 cell growth assay, A431. The data set is classed as cell-based. Particulars: Homo sapiens, read-out: antiproliferative IC50 A431. How it is done: as §1
The conditions of data set [3]: cited from earlier work; for median progression-free survival (PFS): patients with NSCLC with EGFR^L858R or EGFR^del19, improved from 4.6.
In a further data set the target is IGF1R (Homo sapiens, UniProt P08069). Kind of data set: FRET-based Z'-Lyte kinase assay, IGF1R. The data set is classed as biochemical. Particulars: AV ± SD; 1.5 h incubation. As to the method:
(§3) The kinase activity assay was performed and optimized according to the instructions of Z’‐LYTE™ kinase assay kits from the manufacturer (PV4879, Life, America). In our experiments, 10 concentration gradients from 0.01 nmol/L to 1.0 μmol/L were used for all the compounds.

In the next data set the test system is A549 (EGFR^WT) cells. The data set can be described thus: CCK-8 cell growth assay, A549. The data set is classed as cell-based. The conditions noted are these: Homo sapiens, read-out: antiproliferative IC50 A549. As to the method:
as §1

In the next data set the target is IR (Homo sapiens, UniProt P06213). The data set can be described thus: FRET-based Z'-Lyte kinase assay, IR. The data set is classed as biochemical. Particulars: AV ± SD; 1.5 h incubation. As to the method: as §3
Sequence of IR (P06213 28-1382): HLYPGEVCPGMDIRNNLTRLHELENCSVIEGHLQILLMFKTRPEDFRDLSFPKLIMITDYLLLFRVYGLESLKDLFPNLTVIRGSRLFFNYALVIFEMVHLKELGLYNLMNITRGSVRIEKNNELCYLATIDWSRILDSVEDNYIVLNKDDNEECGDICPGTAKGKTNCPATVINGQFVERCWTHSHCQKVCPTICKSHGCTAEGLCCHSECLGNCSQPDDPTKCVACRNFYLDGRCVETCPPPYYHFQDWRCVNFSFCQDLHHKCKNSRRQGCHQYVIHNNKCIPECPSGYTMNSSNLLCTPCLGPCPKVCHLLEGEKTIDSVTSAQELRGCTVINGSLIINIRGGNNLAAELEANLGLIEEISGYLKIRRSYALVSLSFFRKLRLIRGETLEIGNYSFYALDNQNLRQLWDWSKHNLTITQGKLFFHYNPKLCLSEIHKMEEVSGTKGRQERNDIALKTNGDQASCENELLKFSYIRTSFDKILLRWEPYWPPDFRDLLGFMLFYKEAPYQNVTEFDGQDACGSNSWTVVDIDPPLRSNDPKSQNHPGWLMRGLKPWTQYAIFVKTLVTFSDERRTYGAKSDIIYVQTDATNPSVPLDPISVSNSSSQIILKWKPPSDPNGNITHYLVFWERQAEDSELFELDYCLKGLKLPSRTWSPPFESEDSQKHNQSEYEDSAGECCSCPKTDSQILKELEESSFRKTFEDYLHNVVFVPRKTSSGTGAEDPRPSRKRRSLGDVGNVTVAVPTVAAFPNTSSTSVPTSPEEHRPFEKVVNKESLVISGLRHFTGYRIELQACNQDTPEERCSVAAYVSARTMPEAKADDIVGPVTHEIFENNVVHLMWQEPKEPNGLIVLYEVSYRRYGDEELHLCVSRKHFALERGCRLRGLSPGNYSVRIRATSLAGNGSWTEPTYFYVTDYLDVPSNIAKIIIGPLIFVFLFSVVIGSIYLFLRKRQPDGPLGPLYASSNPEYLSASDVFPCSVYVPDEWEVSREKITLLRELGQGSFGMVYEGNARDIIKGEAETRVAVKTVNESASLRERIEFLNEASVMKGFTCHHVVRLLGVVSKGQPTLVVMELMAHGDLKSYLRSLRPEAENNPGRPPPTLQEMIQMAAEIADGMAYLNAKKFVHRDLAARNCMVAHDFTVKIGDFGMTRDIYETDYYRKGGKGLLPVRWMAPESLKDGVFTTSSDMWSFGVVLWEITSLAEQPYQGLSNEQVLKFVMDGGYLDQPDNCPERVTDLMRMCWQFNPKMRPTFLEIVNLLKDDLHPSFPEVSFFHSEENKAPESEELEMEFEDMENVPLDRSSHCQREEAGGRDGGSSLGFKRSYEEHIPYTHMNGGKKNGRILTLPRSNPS
The conditions of data set [4]: cited from earlier work.

Sequence of IGF1R (P08069 31-1367, species assumed): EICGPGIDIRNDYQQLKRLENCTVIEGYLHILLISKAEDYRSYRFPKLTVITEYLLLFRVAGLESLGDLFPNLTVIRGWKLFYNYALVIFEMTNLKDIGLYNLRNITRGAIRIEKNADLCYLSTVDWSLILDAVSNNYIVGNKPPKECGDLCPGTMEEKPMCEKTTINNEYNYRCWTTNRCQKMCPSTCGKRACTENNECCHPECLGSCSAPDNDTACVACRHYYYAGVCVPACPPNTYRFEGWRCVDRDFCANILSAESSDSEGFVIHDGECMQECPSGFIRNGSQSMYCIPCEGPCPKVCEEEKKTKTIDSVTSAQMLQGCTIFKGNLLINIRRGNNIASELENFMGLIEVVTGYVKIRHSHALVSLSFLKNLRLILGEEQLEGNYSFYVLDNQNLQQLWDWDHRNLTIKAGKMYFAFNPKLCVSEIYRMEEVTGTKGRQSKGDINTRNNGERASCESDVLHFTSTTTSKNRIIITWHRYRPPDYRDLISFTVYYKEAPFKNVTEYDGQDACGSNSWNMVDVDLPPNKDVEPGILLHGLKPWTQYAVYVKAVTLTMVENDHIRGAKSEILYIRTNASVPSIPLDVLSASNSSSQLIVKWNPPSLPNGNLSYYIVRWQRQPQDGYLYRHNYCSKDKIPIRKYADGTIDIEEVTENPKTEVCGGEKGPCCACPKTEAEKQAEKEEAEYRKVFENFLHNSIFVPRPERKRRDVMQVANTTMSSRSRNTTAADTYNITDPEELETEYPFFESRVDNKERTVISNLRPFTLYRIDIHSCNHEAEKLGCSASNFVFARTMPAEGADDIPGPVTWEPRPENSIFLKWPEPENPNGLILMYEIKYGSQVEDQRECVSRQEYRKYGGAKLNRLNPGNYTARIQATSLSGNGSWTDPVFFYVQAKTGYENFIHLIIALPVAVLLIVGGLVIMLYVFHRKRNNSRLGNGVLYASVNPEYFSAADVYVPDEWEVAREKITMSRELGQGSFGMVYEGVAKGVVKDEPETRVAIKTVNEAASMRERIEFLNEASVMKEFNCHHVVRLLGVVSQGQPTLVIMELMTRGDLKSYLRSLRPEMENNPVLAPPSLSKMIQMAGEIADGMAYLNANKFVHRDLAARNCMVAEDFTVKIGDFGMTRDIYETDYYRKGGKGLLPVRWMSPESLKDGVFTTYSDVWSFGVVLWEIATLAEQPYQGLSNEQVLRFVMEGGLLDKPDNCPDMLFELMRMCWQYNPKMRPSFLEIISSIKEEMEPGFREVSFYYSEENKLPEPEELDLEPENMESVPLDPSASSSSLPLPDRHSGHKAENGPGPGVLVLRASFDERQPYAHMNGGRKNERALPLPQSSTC

On to `C=CC(=O)Nc1cc(Nc2nccc(-c3cn(C)c4ccccc34)n2)c(OC)cc1N(C)CCN(C)C` [AZD9291, Osimertinib], for which the IC50 in the data set on BaF3 was 6.17 ± 2.98 µM; with BaF3-EGFR ^L858R, 0.024 ± 0.025 µM; in [1] (NCI-H1975, 72 h), 0.0403 ± 0.0166 µM; in data set [2] (HCC827, 72 h) it was 0.0039 ± 0.0035 µM; in the data set on A431 (EGFR^WT) cells (A-431, 72 h), […]; against IGF1R it was 0.277 µM. Also, the IC50 in the data set on A549 (EGFR^WT) cells (A549, 72 h) is […]; at IR it was 0.235 µM. In addition, the “PFS (progression-free survival)” value in data set [3] (improved from 10.2) is 18.9 months.

Take `C=CC(=O)Nc1cccc(Nc2nc(Nc3ccc(N4CCN(C(C)=O)CC4)cc3OC)ncc2C(F)(F)F)c1` [CO1686, Rociletinib]: the IC50 with BaF3 is 2.34 ± 1.66 µM; in the data set on BaF3-EGFR ^L858R (CCK-8, AV±SD) it was 0.069 ± 0.048 µM; in data set [1] (NCI-H1975, CCK-8, 72 h, AV ± SD), 0.0418 ± 0.0251 µM; in data set [2] (HCC827, CCK-8, 72 h, AV ± SD), 0.0672 ± 0.0195 µM; with A431 (EGFR^WT) cells (A-431, CCK-8, 72 h) it was above 1 µM; against IGF1R, 0.0475 ± 0.0084 µM. Also, the IC50 in the data set on A549 (EGFR^WT) cells (A549, CCK-8, 72 h) is above 1 µM; on IR it was 0.0128 ± 0.0008 µM. Also, the hyperglycemia entry is “about 40 % patients” in [4] (clinical investigation) and 47% in data set [4] (patients, clinical study).

Turning to `COc1cc2ncnc(Nc3ccc(F)c(Cl)c3)c2cc1OCCCN1CCOCC1` [Gefitinib], the “median progression-free survival (PFS)” value in data set [3] is 13.1 months.

In the case of `C#Cc1cccc(Nc2ncnc3cc(OCCOC)c(OCCOC)cc23)c1` [erlotinib], the “median progression-free survival (PFS)” value in data set [3] is 13.1 months.
